The values that follow come from US3952061A, “Method of isomerizing humulone to isohumulone by catalytic acceleration with metal salts” (Atlantic Research Institute Limited, priority 1967, dated 1976).

Like-named read-outs stand apart in the source and are kept apart here.

The subject of data set [1] is tubercular bacteria. To be noted: tests in vitro; cited from earlier work.
Data set [2] is classed as physicochemical.
Method: The acceleration of the isomerization in accordance with the present invention is particularly striking at pH values of between 4 and 8. […] For the characterization of this acceleration of the conversion of humulone to isohumulone, reaction-kinetic experiments at different temperatures are shown in the accompanying figures. As reaction media there is used an 0.1 and 0.025 molar sodium acetate solution to which there are added in each case the metal salts in concentrations of 10^^-3 mol/liter and 10^^-4 mol/liter, respectively. Furthermore, pure metal salt solutions of higher concentration (0.025 mol/liter) (FIG. 2) of different pH were also used for the conversion of the humulone.
By way of comparison, the slow isomerization reaction in pure phosphate buffers is also recorded. It should be emphasized that the sodium acetate in the reaction solutions is not necessary for the reaction itself, but merely serves to maintain the pH constant. […] For FIGS. 1 and 2, the logarithm of the humulone extinction measured in a spectral photometer was plotted against the reaction time (in accordance with the law of Lambert and Beer, the extinction is directly proportional to the concentration).

Regarding `CC(C)=CCC(=O)C1(O)C(O)=C(C(=O)CC(C)C)C(=O)C1CC=C(C)C` (stereo not drawn) [isohumulone], in data set [1], the “activity compared with Conteben” value was “practically just as active as Conteben”.

As to humulone, the Half-Life about is, setting by setting: (bacl2 solution, pH 6.9) ~9 min; (cacl2 solution, pH 6.6) ~2 min; (cecl3 solution, pH 4.2) ~10 min; (niso4 solution, pH 4.7) ~0.7 min; (phosphate buffer, pH 5.5) ~100 min; (phosphate buffer, pH 7.2) ~100 min. Also, the Half-Life came to 22 min in data set [2] (acetate buffer + cacl2, pH 8); 5.9 min in data set [2] (acetate buffer + cdcl2, pH 7); 7.3 min in data set [2] (acetate buffer + mgcl2, pH 7.5); 2.6 min in data set [2] (acetate buffer + mgcl2, pH 8); 3.2 min in data set [2] (acetate buffer + mncl2, pH 7.5); 2.5 min in data set [2] (acetate buffer + niso4, pH 6.5). The Half-Life was 360 min in data set [2] (acetate buffer, pH 7) and 120 min in data set [2] (phosphate buffer, pH 5.5).
